{
  "source": "patent US20080255091A1",
  "about": "“COMPOUNDS TO TREAT AMYLOIDOSIS AND PREVENT DEATH OF BETA-CELLS IN TYPE 2 DIABETES MELLITUS” (ASTRUM THERAPEUTICS PTY LTD., priority 2005, published 2008)",
  "origin": "cited, not measured here",
  "system": "β-cell death induced by a fibrillogenic form of IAPP",
  "data": [
    {"compound": "Nc1c(/N=N/c2ccc(-c3ccc(/N=N/c4cc(S(=O)(=O)O)c5ccccc5c4N)cc3)cc2)cc(S(=O)(=O)O)c2ccccc12", "note": "[Congo Red]", "values": [
      {"measurement": "prevention of β-cell death induced by a fibrillogenic form of IAPP", "result": "completely or partially prevented"}
    ]},
    {"compound": "SNNFGA: the peptide SNNFGA, anti-amyloidosis agent from the literature (Islet amyloid polypeptide; UniProt P10997 53-58, looked up, fragment)", "values": [
      {"measurement": "prevention of β-cell death induced by a fibrillogenic form of IAPP", "result": "completely or partially prevented"}
    ]}
  ]
}
